Measured values taken from US20230062100A1, “SUBSTITUTED AMINOQUINOLONES AS DGKALPHA INHIBITORS FOR IMMUNE ACTIVATION” (Bayer Aktiengesellschaft, priority 2019, published 2023).
pIC50: −log10 of the molar value.

Molecular target: DGKα (Homo sapiens, UniProt P23743)
Assay: Human DGKα kinase activity inhibition assay (ADP-Glo)
Type: biochemical
Conditions: in vitro human DGKα kinase activity inhibition assay
Procedure: Human DGKα inhibitory activity of compounds of the present invention was quantified employing the human DGKα kinase activity assay as described in the following paragraphs. In essence, the enzyme activity was measured by quantification of the adenosine-di-phosphate (ADP) generated as a co-product of the enzyme reaction via the “ADP-Glo™ Kinase Assay” kit from the company Promega. This detection system works as follows: In a first step the ATP not consumed in the kinase reaction is quantitatively converted to cAMP employing an adenylate cyclase (“ADP-Glo-reagent”), then the adenylate cyclase is stopped and the ADP generated in the kinase reaction converted to ATP, which subsequently generates in a luciferase-based reaction a glow-luminescence signal (“Kinase Detection Reagent”). C-terminally FLAG-tagged, recombinant full-length human DGKα (expressed in baculovirus infected insect cells, purified using anti-Flag pulldown and size exclusion chromatography as described below, DGKα_hu_1) was used as enzyme. As substrate for the kinase 1,2-dioleoyl-sn-glycerol, reconstituted in octyl-β-D-glucopyranoside micelles, was used. For the preparation of the micelles, 1 volume of a 16.1 mM solution of 1,2-dioleoyl-sn-glycerol (Avanti, Cat. #O8001-25G) in chloroform was slowly evaporated using a nitrogen stream. Subsequently, 22.55 volumes of a 510 mM solution of octyl-β-D-glucopyranoside (Sigma-Aldrich, Cat. #O8001-10G) in 50 mM MOPS buffer (pH 7.4) were added, and the mixture was sonicated in an ultrasonic bath for 20 s. Then 35 volumes of 50 mM MOPS buffer (pH 7.4) were added to yield a solution of 0.28 mM 1,2 dioleoyl-sn-glycerol and 200 mM octyl-β-D-glucopyranoside, which was aliquoted, flash-frozen in liquid nitrogen, and stored at −20° C. until use. For each experiment, a fresh aliquot was quickly thawed and diluted 24-fold with aqueous assay buffer (described below) containing 95.7 μM adenosine triphosphate (Promega) to yield a 1.67-fold concentrated substrate solution. For the assay 50 nl of a 100-fold concentrated solution of the test compound in dimethyl sulfoxide (DMSO, Sigma) was pipetted into either a white 1536-well or a white low-volume 384-well microtiter plate (both Greiner Bio-One, Frickenhausen, Germany). […] The concentration of DGK a was adjusted depending of the activity of the enzyme lot and was chosen appropriate to have the assay in the linear range, a typical concentration is about 0.1 nM. The reaction was stopped by the addition of 2.5 μl of “ADP-Glo-reagent” (1 to 1.5 diluted with water) and the resulting mixture was incubated at 22° C. for 1 h to convert the ATP not consumed in the kinase reaction completely to cAMP. […] The amount of emitted light was taken as a measure for the amount of ADP generated and thereby for the activity of the DGKα.

Sequence of DGKα (P23743 with tags, fused parts or gaps): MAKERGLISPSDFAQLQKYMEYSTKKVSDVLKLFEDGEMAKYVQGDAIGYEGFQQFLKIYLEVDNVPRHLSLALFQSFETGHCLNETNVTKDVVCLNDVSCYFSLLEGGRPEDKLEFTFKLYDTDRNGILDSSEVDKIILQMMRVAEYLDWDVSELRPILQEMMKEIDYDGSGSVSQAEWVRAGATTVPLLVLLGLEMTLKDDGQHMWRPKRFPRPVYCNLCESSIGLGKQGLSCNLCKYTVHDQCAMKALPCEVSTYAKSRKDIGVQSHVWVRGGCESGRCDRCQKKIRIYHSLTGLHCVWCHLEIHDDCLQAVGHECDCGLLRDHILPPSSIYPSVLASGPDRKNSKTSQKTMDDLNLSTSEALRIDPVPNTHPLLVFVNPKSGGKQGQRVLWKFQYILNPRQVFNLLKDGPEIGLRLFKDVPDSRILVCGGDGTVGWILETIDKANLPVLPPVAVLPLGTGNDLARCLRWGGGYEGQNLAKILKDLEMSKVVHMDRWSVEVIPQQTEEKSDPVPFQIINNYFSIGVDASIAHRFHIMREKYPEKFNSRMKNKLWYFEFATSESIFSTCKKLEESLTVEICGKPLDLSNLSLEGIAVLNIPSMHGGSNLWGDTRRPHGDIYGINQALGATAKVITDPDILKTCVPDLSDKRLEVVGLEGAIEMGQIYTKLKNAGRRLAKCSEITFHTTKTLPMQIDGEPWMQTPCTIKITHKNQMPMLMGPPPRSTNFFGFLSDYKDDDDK

SMILES	pIC50
Cn1c(=O)c(C#N)c(N2CCCC(Oc3ccc(OC(F)(F)F)cc3)CC2)c2ccccc21 (racemic) [Example 100, (rac)-1-methyl-2-oxo-4-{4-[4-(trifluoromethoxy)phenoxy]azepan-1-yl}-1,2-dihydroquinoline-3-carbonitrile]	8.08
Cn1c(=O)c(C#N)c(N2CCCC(Oc3ccc(Br)cc3)CC2)c2ccccc21 (racemic) [Example 103, (rac)-4-[4-(4-bromophenoxy)azepan-1-yl]-1-methyl-2-oxo-1,2-dihydroquinoline-3-carbonitrile]	7.74
Cn1c(=O)c(C#N)c(N2CCCC(Oc3ccc(N4CCC4)cc3)CC2)c2ccccc21 (racemic) [Example 104, (rac)-4-{4-[4-(azetidin-1-yl)phenoxy]azepan-1-yl}-1-methyl-2-oxo-1,2-dihydroquinoline-3-carbonitrile]	7.40
Cn1cc(-c2ccc(OC3CCCN(c4c(C#N)c(=O)n(C)c5ccccc45)CC3)cc2)cn1 (racemic) [Example 105, (rac)-1-methyl-4-{4-[4-(1-methyl-1H-pyrazol-4-yl)phenoxy]azepan-1-yl}-2-oxo-1,2-dihydroquinoline-3-carbonitrile]	7.48
CC(OC1CCN(c2c(C#N)c(=O)n(C)c3ccccc23)CC1)c1ccccc1 (racemic) [Example 112, (rac)-1-methyl-2-oxo-4-[4-(1-phenylethoxy)piperidin-1-yl]-1,2-dihydroquinoline-3-carbonitrile]	8.00
Cn1c(=O)c(C#N)c(N2CCCC(Oc3ccc(OC(F)(F)F)cc3)CC2)c2ccccc21 (single isomer, unassigned; enantiomer 1) [Example 101, 1-methyl-2-oxo-4-{4-[4-(trifluoromethoxy)phenoxy]azepan-1-yl}-1,2-dihydroquinoline-3-carbonitrile, enantiomer 1]	8.13
Cn1c(=O)c(C#N)c(N2CCCC(Oc3ccc(OC(F)(F)F)cc3)CC2)c2ccccc21 (single isomer, unassigned; enantiomer 2) [Example 102, 1-methyl-2-oxo-4-{4-[4-(trifluoromethoxy)phenoxy]azepan-1-yl}-1,2-dihydroquinoline-3-carbonitrile, enantiomer 2]	7.74
Cc1ccc(OC2CCN(c3c(C#N)c(=O)n(C)c4ccccc34)CC2)cc1 [Example 1, 1-methyl-4-[4-(4-methylphenoxy)piperidin-1-yl]-2-oxo-1,2-dihydroquinoline-3-carbonitrile]	8.38
Cn1c(=O)c(C#N)c(N2CCC(Oc3ccc(OC(F)(F)F)cc3)CC2)c2ccccc21 [Example 2, 1-methyl-2-oxo-4-{4-[4-(trifluoromethoxy)phenoxy]piperidin-1-yl}-1,2-dihydroquinoline-3-carbonitrile]	8.41
Cc1cccc(OC2CCN(c3c(C#N)c(=O)n(C)c4ccccc34)CC2)c1 [Example 3, 1-methyl-4-[4-(3-methylphenoxy)piperidin-1-yl]-2-oxo-1,2-dihydroquinoline-3-carbonitrile]	8.21
COc1cccc(OC2CCN(c3c(C#N)c(=O)n(C)c4ccccc34)CC2)c1 [Example 4, 4-[4-(3-methoxyphenoxy)piperidin-1-yl]-1-methyl-2-oxo-1,2-dihydroquinoline-3-carbonitrile]	8.20
Cn1c(=O)c(C#N)c(N2CCC(Oc3ccccc3)CC2)c2ccccc21 [Example 5, 1-methyl-2-oxo-4-(4-phenoxypiperidin-1-yl)-1,2-dihydroquinoline-3-carbonitrile]	8.11
Cn1c(=O)c(C#N)c(N2CCC(Oc3ccc(F)cc3)CC2)c2ccccc21 [Example 6, 4-[4-(4-fluorophenoxy)piperidin-1-yl]-1-methyl-2-oxo-1,2-dihydroquinoline-3-carbonitrile]	8.08
Cn1c(=O)c(C#N)c(N2CCC(Oc3cccc(F)c3)CC2)c2ccccc21 [Example 7, 4-[4-(3-fluorophenoxy)piperidin-1-yl]-1-methyl-2-oxo-1,2-dihydroquinoline-3-carbonitrile]	8.07
Cn1c(=O)c(C#N)c(N2CCC(Oc3ccc(Br)cc3)CC2)c2ccccc21 [Example 8, 4-[4-(4-bromophenoxy)piperidin-1-yl]-1-methyl-2-oxo-1,2-dihydroquinoline-3-carbonitrile]	7.89
Cn1c(=O)c(C#N)c(N2CCC(Oc3cccc(Cl)c3)CC2)c2ccccc21 [Example 9, 4-[4-(3-chlorophenoxy)piperidin-1-yl]-1-methyl-2-oxo-1,2-dihydroquinoline-3-carbonitrile]	8.04
Cn1c(=O)c(C#N)c(N2CCC(Oc3ccc(Cl)cc3)CC2)c2ccccc21 [Example 10, 4-[4-(4-chlorophenoxy)piperidin-1-yl]-1-methyl-2-oxo-1,2-dihydroquinoline-3-carbonitrile]	8.00
COc1ccccc1OC1CCN(c2c(C#N)c(=O)n(C)c3ccccc23)CC1 [Example 11, 4-[4-(2-methoxyphenoxy)piperidin-1-yl]-1-methyl-2-oxo-1,2-dihydroquinoline-3-carbonitrile]	7.96
CCOC(=O)c1ccc(OC2CCN(c3c(C#N)c(=O)n(C)c4ccccc34)CC2)cc1 [Example 12, ethyl 4-{[1-(3-cyano-1-methyl-2-oxo-1,2-dihydroquinolin-4-yl)piperidin-4-yl]oxy}benzoate]	7.92
Cn1c(=O)c(C#N)c(N2CCC(Oc3ccc(C(F)(F)F)cc3)CC2)c2ccccc21 [Example 13, 1-methyl-2-oxo-4-{4-[4-(trifluoromethyl)phenoxy]piperidin-1-yl}-1,2-dihydroquinoline-3-carbonitrile]	7.85
Cc1ccccc1OC1CCN(c2c(C#N)c(=O)n(C)c3ccccc23)CC1 [Example 14, 1-methyl-4-[4-(2-methylphenoxy)piperidin-1-yl]-2-oxo-1,2-dihydroquinoline-3-carbonitrile]	7.85
Cn1c(=O)c(C#N)c(N2CCC(Oc3cccc(C(F)(F)F)c3)CC2)c2ccccc21 [Example 15, 1-methyl-2-oxo-4-{4-[3-(trifluoromethyl)phenoxy]piperidin-1-yl}-1,2-dihydroquinoline-3-carbonitrile]	7.85
Cn1c(=O)c(C#N)c(N2CCC(Oc3ccccc3Cl)CC2)c2ccccc21 [Example 16, 4-[4-(2-chlorophenoxy)piperidin-1-yl]-1-methyl-2-oxo-1,2-dihydroquinoline-3-carbonitrile]	7.48
Cn1c(=O)c(C#N)c(N2CCC(Oc3ccc(-n4cncn4)cc3)CC2)c2ccccc21 [Example 17, 1-methyl-2-oxo-4-{4-[4-(1H-1,2,4-triazol-1-yl)phenoxy]piperidin-1-yl}-1,2-dihydroquinoline-3-carbonitrile]	7.35
Cn1c(=O)c(C#N)c(N2CCC(Oc3ccc(N4CCCC4=O)cc3)CC2)c2ccccc21 [Example 18, 1-methyl-2-oxo-4-{4-[4-(2-oxopyrrolidin-1-yl)phenoxy]piperidin-1-yl}-1,2-dihydroquinoline-3-carbonitrile]	7.26
Cn1c(=O)c(C#N)c(N2CCC(Oc3ccc(-n4ccnc4)cc3)CC2)c2ccccc21 [Example 19, 4-{4-[4-(1H-imidazol-1-yl)phenoxy]piperidin-1-yl}-1-methyl-2-oxo-1,2-dihydroquinoline-3-carbonitrile]	7.19
Cn1c(=O)c(C#N)c(N2CCC(Oc3ccc(N4CCOCC4)cc3)CC2)c2ccccc21 [Example 20, 1-methyl-4-{4-[4-(morpholin-4-yl)phenoxy]piperidin-1-yl}-2-oxo-1,2-dihydroquinoline-3-carbonitrile]	7.09
CN1CCCN(c2ccc(OC3CCN(c4c(C#N)c(=O)n(C)c5ccccc45)CC3)cc2)C1=O [Example 21, 1-methyl-4-{4-[4-(3-methyl-2-oxo-1,3-diazinan-1-yl)phenoxy]piperidin-1-yl}-2-oxo-1,2-dihydroquinoline-3-carbonitrile]	6.92
CN1CCN(c2ccc(OC3CCN(c4c(C#N)c(=O)n(C)c5ccccc45)CC3)cc2)C1=O [Example 22, 1-methyl-4-{4-[4-(3-methyl-2-oxoimidazolidin-1-yl)phenoxy]piperidin-1-yl}-2-oxo-1,2-dihydroquinoline-3-carbonitrile]	6.89
Cn1c(=O)c(C#N)c(N2CCC(Oc3ccc(N4CCCCC4=O)cc3)CC2)c2ccccc21 [Example 23, 1-methyl-2-oxo-4-{4-[4-(2-oxopiperidin-1-yl)phenoxy]piperidin-1-yl}-1,2-dihydroquinoline-3-carbonitrile]	6.74
